In US7160915B2, “N-methyl-substituted benzamidazoles” (Warner-Lambert Company, LLC, priority 2003, dated 2007):

Test system: phosphorylation of MAP kinase (ERK) in murine colon 26 (C26) carcinoma cells
Assay: Cellular assay for measuring MEK inhibition: inhibition of ERK phosphorylation, C26CPA1
Type: cell-based
Conditions: Mus musculus, 1 h, C26 cells treated one hour with test compound
Protocol: (§1) Cellular Assay for Measuring MEK Inhibition
(§2) MEK inhibitors were evaluated by determining their ability to inhibit phosphorylation of MAP kinase (ERK) in murine colon 26 (C26) carcinoma cells. Since ERK1 and ERK2 represent the only known substrates for MEK1 and MEK2, the measurement of inhibition of ERK phosphorylation in cells provides direct read out of cellular MEK inhibition by the compounds of the invention. Detection of phosphorylation of ERK was carried out either by Western blot or ELISA format. Briefly, the assays involve treatment of exponentially growing C26 cells with varying concentrations of the test compound (or vehicle control) for one hour at 35° C. For Western blot assay, cells were rinsed free of compound/vehicle and lysed in a solution containing 50 mM NaCl, 50 mM glycerol phosphate, 10 mM HEPES, pH […], 1% Triton X-100, 1 mM Na3VO4, 100 μM PMSF, 10 μM leupeptin and 10 μM pepstatin. Supernatants were then subjected to gel electrophoresis and hybridized to a primary antibody recognizing dually phosphorylated ERK1 and ERK2. To evaluate total MAPK levels, blots were subsequently ‘stripped’ and re-probed with a 1:1 mixture of polyclonal antibodies recognizing unphosphorylated ERK1 and ERK2. For pERK ELISA assay, pERK TiterZyme Enzyme immunometric Assay kits were acquired from Assay Designs, Inc (Ann Arbor, Mich.). Briefly, cells were harvested in lysis solution containing 50 mM β-glycerophosphate, 10 mM HEPES, pH5.4, 50 mM NaCl, 2mM EDTA and 1% SDS and protein lysates were diluted 1:15 with supplied Assay buffer prior to the execution of the assay. The subsequent steps were carried out essentially as recommended by the manufacturer.
(§3) The inhibition data generated by the above protocol is disclosed in Table I. If several concentrations of inhibitor were tested, IC50 values (the concentration which gives 50% inhiition) were determined graphically from the dose response curve for % inhibition. Otherwise, percent inhibitions at measured concentrations are reported.
(§4) Table I. Cellular Inhibition of ERK Phosphorylation by Compounds of the Invention

Row | IC50 | Structure (SMILES)
1 | 0.4 nM | Cn1cnc2c(F)c(Nc3ccc(I)cc3F)c(C(=O)NO)cc21 [Compound 30]
2 | 1000 nM | Cn1cnc2c(F)c(Nc3ccc(I)cc3F)c(C(=O)NCCCN)cc21 [Compound 31]
3 | 556 nM | Cn1cnc2c(F)c(Nc3ccc(I)cc3F)c(C(=O)NCC(O)CO)cc21 (stereo not shown) [Compound 24]
4 | 230 nM | CCc1ccc(Nc2c(C(=O)OC)cc3c(ncn3C)c2F)c(F)c1 [Compound 38]
5 | 28 nM | CCCn1cnc2c(F)c(Nc3ccc(I)cc3C)c(C(=O)NOCC3CC3)cc21 [Compound 14]
6 | 12 nM | Cc1cc(I)ccc1Nc1c(C(=O)NOCC2CC2)cc2c(ncn2C)c1F [Compound 9]
7 | 3.4 nM | Cc1cc(I)ccc1Nc1c(C(=O)NOCCO)cc2c(ncn2C)c1F [Compound 13]
8 | 268 nM | Cc1cc(I)ccc1Nc1c(-c2nnc(N)o2)cc2c(ncn2C)c1F [Compound 21]
9 | 86 nM | Cc1cc(I)ccc1Nc1c(C(=O)NOCC(O)CO)cc2c(ncn2C)c1F (stereo not shown) [Compound 15]
10 | 122 nM | Cn1cnc2c(F)c(Nc3ccc(I)cc3F)c(C(=O)NCCO)cc21 [Compound 25]
11 | 190 nM | CNCCONC(=O)c1cc2c(ncn2C)c(F)c1Nc1ccc(I)cc1C [Compound 20]
12 | 80 nM | Cn1cnc2c(F)c(Nc3ccc(I)cc3F)c(CO)cc21 [Compound 40]
13 | 1.9 nM | Cn1cnc2c(F)c(Nc3ccc(I)cc3F)c(C(=O)NOCCO)cc21 [Compound 32]
14 | 8.85 nM | Cc1cc(I)ccc1Nc1c(C(=O)NOCC2CC2)cc2c(ncn2CC(O)CO)c1F (stereo not shown) [Compound 35]
15 | 569 nM | Cn1cnc2c(F)c(Nc3ccc(I)cc3F)c(-c3nnc(NCCO)o3)cc21 [Compound 6]
16 | 110 nM | Cc1cc(I)ccc1Nc1c(C(=O)NOCC2CC2)cc2c(ncn2CCCO)c1F [Compound 16]
17 | 22 nM | Cn1cnc2c(F)c(Nc3ccc(I)cc3F)c(C(=O)NOC[C@H](O)CO)cc21 [Compound 34]
18 | 22 nM | COC(=O)Cn1cnc2c(F)c(Nc3ccc(I)cc3C)c(C(=O)NOCC3CC3)cc21 [Compound 12]
19 | 566 nM | Cc1cc(I)ccc1Nc1c(CO)cc2c(ncn2C)c1F [Compound 28]
20 | 41 nM | Cc1cc(I)ccc1Nc1c(C(N)=O)cc2c(ncn2C)c1F [Compound 22]
21 | 2 nM | Cn1cnc2c(F)c(Nc3ccc(I)cc3F)c(C(N)=O)cc21 [Compound 23]
22 | 1000 nM | COC(=O)c1cc2c(ncn2C)c(F)c1Nc1ccc(I)cc1C [Compound 11]
23 | 150 nM | Cn1cnc2c(F)c(Nc3ccc(I)cc3F)c(C(=O)NCCCO)cc21 [Compound 26]

Test system: not given
Assay: not given
Conditions: not given

Row | melting point | Structure (SMILES)
24 | 265 to 268 °C (dec.) | Cn1cnc2c(F)c(Nc3ccc(I)cc3F)c(C(N)=O)cc21 [Example 2]
25 | 258 to 260 °C | Cc1cc(I)ccc1Nc1c(-c2nnc(N)o2)cc2c(ncn2C)c1F [Example 4, [6-(5-amino-[1,3,4]oxadiazol-2-yl)-4-fluoro-1-methyl-1H-benzoimidazol-5-yl]-(4-iodo-2-methyl-phenyl)-amine]

Test system: phosphorylation of MAP kinase (ERK) in murine colon 26 (C26) carcinoma cells
Assay: Cellular assay for measuring MEK inhibition: inhibition of ERK phosphorylation, C26ELSA (pERK ELISA)
Type: cell-based
Conditions: Mus musculus, 1 h, C26 cells treated one hour with test compound
Protocol: as §1, §2, §3, §4

Row | IC50 | Structure (SMILES)
26 | 550 nM | Cn1cnc2c(F)c(Nc3ccc(I)cc3F)c(C(=O)NCCCO)cc21 [Compound 1]
27 | 280 nM | CCc1ccc(Nc2c(C(N)=O)cc3c(ncn3C)c2F)c(F)c1 [Compound 42]
28 | 8.42 nM | Cn1cnc2c(F)c(Nc3ccc(I)cc3F)c(C(N)=O)cc21 [Compound 23]
